Source: patent US9079821B2, “Quinone based nitric oxide donating compounds” (NICOX S.A., priority 2011, dated 2015)
Like-named read-outs stand apart in the source and are kept apart here.

Key:
[1] = test system: isolated aortas from rats; test: Ex vivo tolerance evaluation (vascular response of isolated aortas from treated rats); assay type: in vivo, rat; details: for EC50 at 100 mg/kg: Rattus norvegicus, vascular response to Compound (6), 3 h after last administration
Description: (§1) Thoracic aortas from male New Zealand rabbits or male Sprague Dawley (SD) were used. The aortas were placed immediately in Krebs-HEPES buffer (pH 7.4; composition mM: NaCl 130.0, KCl 3.7, NaHCO3 14.9, KH2PO4 1.2, MgSO4.7H2O 1.2, Glucose 11.0, HEPES 10.0, CaCl2.2H2O 1.6). Connective tissue was removed and aortas were cut into ring segments (4-5 mm in length). Each ring was placed in a 5 mL tissue bath filled with Krebs-HEPES buffer (37° C.) aerated with 95% O2 and 5% CO2 and was attached to a force transducer (Grass FT03), connected to a BIOPAC MP150 System for measurement of the isometric tension. Preparations were allowed to equilibrate for 1 h at a resting tension of 2 g for rabbit aortas and 1 g for rat aortas with changes of the buffer every 15 min. Then the rings were stimulated by exposure to 90 mM KCl (3 times) with intervening washings.
(§2) Rat aorta. After equilibration, rat aortas were precontracted with KCl (90 mM) and, when the contraction was stable, a cumulative concentration-response curve to acetylcholine (ACh, 0.01-100 μM) was added. After washout, the rings were precontracted again with KCl (90 mM). When a steady-state level of contraction was obtained, a cumulative concentration-response curve to the tested compounds (0.01-100 μM) was obtained.
(§3) Data analysis. Results are given as mean±SEM. Vascular responses are expressed as percentage relaxation and plotted vs concentration. The sensitivity of isolated aorta to different vasodilators is expressed as the concentration that elicited 50% of the maximal responses (EC50). Responses are quantified in terms of EC50 and Emax (maximal vasodilating effect) values, obtained from the concentration-response curve by nonlinear curve fitting, using GraphPad software.
Tolerance to nitrate was further investigated assessing the vascular effects of Compound (6) following repeated treatment compared with 5-ISMN. The vascular response to the compound itself was assessed on isolated aortas from rats orally treated for 5 days with Compound (6) (100 mg/kg). The vascular response was performed as described in Example 6.
Vascular responses were performed 1 h (ISMN) or 3 h (Compound (6)) after the last administration, the concentrations of tested compound that elicited the 50% of the maximal responses (EC50) are shown in Table 4.

[2] = test system: NADPH-induced lipidic peroxidation of membrane lipids (hepatic microsomal membranes); test: In vitro antioxidant activity (TBARS test), Method A (ADP-FeCl3 and NADPH); assay type: biochemical, rat; details: inhibition of TBARS production after 30 min incubation, read-out: Antioxidant activity IC50 μM (CL 95%)
Description: The antioxidant properties of compounds (6) (disclosed in example 1) and compound (23) (disclosed in example 19) and reference antioxidant compounds were assessed after NADPH-induced lipidic peroxidation of membrane lipids in rat hepatocytes using the detection of 2-thiobarbituric acid reactive substances (TBARS) by visible spectroscopy.
Hepatic microsomal membranes from male Wistar rats (200-250 g) were prepared by differential centrifugation (8000 g, 20 min; 120000 g, 1 h) in a HEPES/sucrose buffer (10 mM, 250 mM, pH 7.4) and stored at −80° C. Incubation was performed at 37° C. in a Tris-HCl/KCl (100 mM/150 mM, pH 7.4) containing microsomal membranes (2 mg prot/mL), sodium ascorbate (100 μM), and DMSO solutions of the tested compounds. Lipid peroxidation was initiated by adding ADP-FeCl3 and NADPH (Method A) or 2.5 μM FeSO4 (Method B) (as described by Boschi D. et al., J. Med. Chem. 2006, 49:2886-2897). Aliquots were taken from the incubation mixture at 5, 15, and 30 min and treated with trichloroacetic acid (TCA) 10% w/v. Lipid peroxidation was assessed by spectrophotometric (543 nm) determination of the TBARS consisting mainly of malondialdehyde (MDA). TBARS concentrations (expressed in nmol/mg protein) were obtained by interpolation with a MDA standard curve. The antioxidant activity of tested compounds was evaluated as the percent inhibition of TBARS production with respect to control samples, using the values obtained after 30 min of incubation. IC50 values were calculated by nonlinear regression analysis.

[3] = test system: rat L-NAME-induced hypertension; test: Rat L-NAME-induced hypertension, systolic blood pressure after single oral dose; assay type: in vivo; details: for Delta vs basal (mmHg): Comp. (6) 100 mg/kg oral, L-NAME 50 mg/kg i.p.
Description: To assess the in vivo NO-dependent activity, Compound (6) was evaluated for systolic blood pressure (SBP) reduction efficacy in a rat model of NO-deprivation induced by L-NAME and compared with 5-ISMN.
Fasted male SD rats (250-300 g, n=3-5 per group), obtained from Harlan Italy (Correzzana, Milan, Italy) were orally treated with tested compounds or vehicle (DMSO:Methocel 1% 2/98 v/v) in a total volume of 4 ml/kg by gavage. At each time point (1, 3, 6 and 24 h) animals were deeply anesthetized with Zoletil® 100 (3 mg/kg), given intramuscularly. Thereafter, a pressure catheter (Samba Sensors, Harvard Apparatus, UK) was introduced into the common carotid artery for central blood pressure measurement. Pressure transducer was connected to a personal computer, in order to allow real time monitor of the pressure tracing. After 10 minutes of basal recording, L-NAME (50 mg/kg) was administered intraperitoneally and the effect on SBP monitored. When the SBP stabilized (5 minutes without variations) the recording was stopped. To further confirm that functional activity was NO-dependent, at each time point blood ^15N-nitrite levels were measured following the procedure described in Example 12.

[4] = test system: methoxamine-precontracted rabbit aortic rings; test: In vitro NO-mediated vasorelaxation; assay type: cell-based
Description: The ability of compound (6) disclosed in example 1, to induce in vitro vasorelaxation, which is a functional marker of NO release, was assessed on methoxamine-precontracted rabbit aortic rings.
as §1
Rabbit aorta. […]
Data analysis. […] Vascular responses are expressed as percentage relaxation and plotted vs concentration. […] Responses are quantified in terms of EC50 and Emax (maximal vasodilating effect) values, obtained from the concentration-response curve by nonlinear curve fitting, using GraphPad software.

[5] = test system: rat aorta, endothelial-dependent vasodilation (response to ACh); test: Endothelial dysfunction evaluation (vascular response to acetylcholine after treatment); assay type: in vivo; details: for Emax at 100 mg/kg: Rattus norvegicus, response to ACh, read-out: % relaxation (Emax)
Description: as §1, §2, §3
Endothelial-dependent vasodilation (vascular response to acetylcholine, ACh) was assessed following 5-day treatment with Compound (6) (100 mg/kg) or 5-ISMN (30 mg/kg). A relaxant response to ACh indicated the presence of a functional endothelium. The vascular response was performed as described in Example 6.

COC1=C(OC)C(=O)C(CCCCCCCCCCO[N+](=O)[O-])=C(C)C1=O [Compound (6), 10-(4,5-dimethoxy-2-methyl-3,6-dioxocyclohexa-1,4-dienyl)decyl nitrate]
EC50 at 100 mg/kg ([1]; acute, aortas of rats given Compound (6) 100 mg/kg): 110 ± 20 nM
EC50 at 100 mg/kg ([1]; repeated (5 days oral) Compound (6) 100 mg/kg): 180 ± 20 nM
vascular response of aortas from treated animals vs vehicle arteries, in words ([1]; compound (6) 100 mg/kg oral, 5 days): showed the same sensitivity to Compound (6) as those arteries of animals treated only with vehicle
IC50 [2]: 2 µM
Delta vs basal (mmHg) ([3]; 1 hour): 53.5 ± 4.5 mmHg
Delta vs basal (mmHg) ([3]; 3 hours): 14 ± 3.8 mmHg
Delta vs basal (mmHg) ([3]; 6 hours): 38 ± 3.6 mmHg
Delta vs basal (mmHg) ([3]; 24 hours): 67.7 ± 16.8 mmHg
time over which L-NAME induced SBP increase was prevented after treatment ([3]; Compound (6) 100 mg/kg, single oral administration): 6 h
relaxation at the highest concentration tested ([4]; 100 μM): 89±1%
EC50 ([4]; Oryctolagus cuniculus, methoxamine (3 μM) precontracted, functional endothelium, read-out: EC50 (concentration-dependent relaxation)): 4700 ± 200 nM
effect on endothelial-dependent vasorelaxation, in words ([5]; Compound (6) 100 mg/kg, 5-day treatment): did not modify endothelial-dependent vasorelaxation
Emax at 100 mg/kg ([5]; 120 h, repeated (5-day) Comp. (6) 100 mg/kg): 84.3 ± 7.5%
Emax at 100 mg/kg ([5]; acute, Comp. (6) 100 mg/kg): 89.6 ± 4.5%
